Laboratory results published in ChEMBL document CHEMBL4393657, “Tetrazole hybrids and their antifungal activities” (2019).
Converted amounts (≈) assume the structure as drawn.

Assays:
Type in all cases: functional
[1] = system: Candida albicans; assay: Antifungal activity against Candida albicans assessed as reduction in fungal cell growth incubated for 24 and 72 hrs by cup plate method
[2] = system: Aspergillus flavus; assay: Antifungal activity against Aspergillus flavus assessed as reduction in fungal cell growth incubated for 24 and 72 hrs by cup plate method
[3] = system: Fusarium oxysporum; assay: Antifungal activity against Fusarium oxysporum assessed as reduction in fungal cell growth incubated for 24 and 72 hrs by cup plate method
[4] = system: Candida albicans; assay: Antifungal activity against Candida albicans assessed as reduction in fungal cell growth incubated for 48 hrs by broth microdilution susceptibility method
[5] = system: Candida albicans; assay: Antifungal activity against Candida albicans assessed as inhibition zone at 250 ug/ml; settings: read-out: IZ
[6] = system: Aspergillus niger; assay: Antifungal activity against Aspergillus niger assessed as inhibition zone at 250 ug/ml; settings: read-out: IZ
[7] = system: Candida albicans; assay: In vivo antifungal activity against Candida albicans TA infected in CDF-1 mouse dosed orally assessed as survival of mouse; settings: po

SMILES | MIC [1] [µg/mL] | MIC [2] [µg/mL] | MIC [3] [µg/mL] | MIC [4] [µg/mL] | further results
CCOC(=O)C(C#N)C(c1cc2cc(OC)ccc2n2nnnc12)P(=O)(OCC)OCC (stereo not drawn) | 10 to 25 (≈ 21.7 to 54.2 µM) | 10 to 25 (≈ 21.7 to 54.2 µM) | 10 to 25 (≈ 21.7 to 54.2 µM) |  | 
COc1ccc2cc(C3CC(c4cc(Br)ccc4O)=NN3)c3nnnn3c2c1 (stereo not drawn) | 25 to 100 (≈ 56.9 to 228 µM) | 25 to 100 (≈ 56.9 to 228 µM) | 25 to 100 (≈ 56.9 to 228 µM) |  | 
O=C1CC(=O)N(c2ccccc2)C(=S)N1/N=C/c1cc2ccccc2n2nnnc12 |  |  |  | ≥ 100 | 
Oc1cccc(-c2nnnn2-c2nc3ccccc3s2)c1 |  |  |  |  | zone of inhibition at 250 µg/mL [5]: 13 to 23 mm; zone of inhibition at 250 µg/mL [6]: 13 to 23 mm
S=C1N=C(c2ccc(Br)cc2)CC(c2cc3ccccc3n3nnnc23)N1 (stereo not drawn) |  |  |  | ≥ 100 | 
Cc1ccc(N2C(=O)CC(=O)N(/N=C/c3cc4ccccc4n4nnnc34)C2=S)cc1 |  |  |  | ≥ 100 | 
CN(C)c1ccc(/C=C2/C(=O)N(/N=C/c3cc4ccccc4n4nnnc34)C(=S)N(c3ccc(Cl)cc3)C2=O)cc1 |  |  |  | ≥ 100 | 
Cc1ccc2c(c1)cc(C1CC(c3cc(Br)ccc3O)=NN1)c1nnnn12 (stereo not drawn) | 25 to 100 (≈ 59.1 to 236 µM) | 25 to 100 (≈ 59.1 to 236 µM) | 25 to 100 (≈ 59.1 to 236 µM) |  | 
Cc1ccc(N2C(=O)/C(=C\c3ccc(N(C)C)cc3)C(=O)N(/N=C/c3cc4ccccc4n4nnnc34)C2=S)cc1 |  |  |  | ≥ 100 | 
Clc1ccccc1C(c1ccccc1)(c1ccccc1)n1ccnc1 [CLOTRIMAZOLE] |  |  |  | 12.5 (≈ 36.2 µM) | 
O=[N+]([O-])c1cccc(-c2nnnn2-c2nc3ccccc3s2)c1 |  |  |  |  | zone of inhibition at 250 µg/mL [5]: 13 to 23 mm; zone of inhibition at 250 µg/mL [6]: 13 to 23 mm
O=C1/C(=C/c2ccccc2)C(=O)N(c2ccc(Cl)cc2)C(=S)N1/N=C/c1cc2ccccc2n2nnnc12 |  |  |  | ≥ 100 | 
CCOC(=O)C(C#N)C(c1cc2cc(C)ccc2n2nnnc12)P(=O)(OCC)OCC (stereo not drawn) | 10 to 25 (≈ 22.5 to 56.1 µM) | 10 to 25 (≈ 22.5 to 56.1 µM) | 10 to 25 (≈ 22.5 to 56.1 µM) |  | 
S=C1N=C(c2ccccc2)CC(c2cc3ccccc3n3nnnc23)N1 (stereo not drawn) |  |  |  | ≥ 100 | 
S=C1N=C(c2ccc(Cl)cc2)CC(c2cc3ccccc3n3nnnc23)N1 (stereo not drawn) |  |  |  | ≥ 100 | 
Clc1ccc(-c2nnnn2-c2nc3ccccc3s2)cc1 |  |  |  |  | zone of inhibition at 250 µg/mL [5]: 13 to 23 mm; zone of inhibition at 250 µg/mL [6]: 13 to 23 mm
COc1cccc2c1cc(/C=C/C(=O)c1cc(Br)ccc1O)c1nnnn12 | 25 to 100 (≈ 58.8 to 235 µM) | 25 to 100 (≈ 58.8 to 235 µM) | 25 to 100 (≈ 58.8 to 235 µM) |  | 
COc1ccc2cc(/C=C/C(=O)c3cc(Br)ccc3O)c3nnnn3c2c1 | 25 to 100 (≈ 58.8 to 235 µM) | 25 to 100 (≈ 58.8 to 235 µM) | 25 to 100 (≈ 58.8 to 235 µM) |  | 
Cc1ccc2c(c1)cc(/C=C/C(=O)c1cc(Br)ccc1O)c1nnnn12 | 25 to 100 (≈ 61.1 to 244 µM) | 25 to 100 (≈ 61.1 to 244 µM) | 25 to 100 (≈ 61.1 to 244 µM) |  | 
CCOC(=O)C(C#N)C(c1cc2ccc(OC)cc2n2nnnc12)P(=O)(OCC)OCC (stereo not drawn) | 10 to 25 (≈ 21.7 to 54.2 µM) | 10 to 25 (≈ 21.7 to 54.2 µM) | 10 to 25 (≈ 21.7 to 54.2 µM) |  | 
Cc1ccc(N2C(=O)/C(=C\c3ccccc3)C(=O)N(/N=C/c3cc4ccccc4n4nnnc34)C2=S)cc1 |  |  |  | ≥ 100 | 
Cc1ccc2cc(/C=C/C(=O)c3cc(Br)ccc3O)c3nnnn3c2c1 | 25 to 100 (≈ 61.1 to 244 µM) | 25 to 100 (≈ 61.1 to 244 µM) | 25 to 100 (≈ 61.1 to 244 µM) |  | 
C[C@@H](n1nnn(-c2ccc(OC(F)(F)C(F)F)cc2)c1=O)[C@](O)(Cn1cncn1)c1ccccc1 |  |  |  |  | ED50 [7]: 0.71 to 2 mg/kg
COc1cccc2c1cc(C1CC(c3cc(Br)ccc3O)=NN1)c1nnnn12 (stereo not drawn) | 25 to 100 (≈ 56.9 to 228 µM) | 25 to 100 (≈ 56.9 to 228 µM) | 25 to 100 (≈ 56.9 to 228 µM) |  | 
Cc1cccc2c1cc(C1CC(c3cc(Br)ccc3O)=NN1)c1nnnn12 (stereo not drawn) | 25 to 100 (≈ 59.1 to 236 µM) | 25 to 100 (≈ 59.1 to 236 µM) | 25 to 100 (≈ 59.1 to 236 µM) |  | 
Oc1ccc(Br)cc1C1=NNC(c2cc3ccccc3n3nnnc23)C1 (stereo not drawn) | 25 to 100 (≈ 61.1 to 244 µM) | 25 to 100 (≈ 61.1 to 244 µM) | 25 to 100 (≈ 61.1 to 244 µM) |  | 
C[C@@H](n1nnn(-c2ccc(OCC(F)(F)C(F)F)cc2)c1=O)[C@](O)(Cn1cncn1)c1ccccc1 |  |  |  |  | ED50 [7]: 0.71 to 2 mg/kg
O=C1CC(=O)N(c2ccc(Cl)cc2)C(=S)N1/N=C/c1cc2ccccc2n2nnnc12 |  |  |  | ≥ 100 | 
CCOC(=O)C(C#N)C(c1cc2c(OCC)cccc2n2nnnc12)P(=O)(OCC)OCC (stereo not drawn) | 10 to 25 (≈ 21 to 52.6 µM) | 10 to 25 (≈ 21 to 52.6 µM) | 10 to 25 (≈ 21 to 52.6 µM) |  | 
